We go through 21 compounds from patent US8148531B2 (Chroma Therapeutics Ltd., priority 2005, dated 2012).

SMILES strings stand for the structures. Bounds are passed on as bounds.

The target of one test is T1, Aurora-A (Homo sapiens, UniProt O14965).
T1 sequence (O14965 1-403): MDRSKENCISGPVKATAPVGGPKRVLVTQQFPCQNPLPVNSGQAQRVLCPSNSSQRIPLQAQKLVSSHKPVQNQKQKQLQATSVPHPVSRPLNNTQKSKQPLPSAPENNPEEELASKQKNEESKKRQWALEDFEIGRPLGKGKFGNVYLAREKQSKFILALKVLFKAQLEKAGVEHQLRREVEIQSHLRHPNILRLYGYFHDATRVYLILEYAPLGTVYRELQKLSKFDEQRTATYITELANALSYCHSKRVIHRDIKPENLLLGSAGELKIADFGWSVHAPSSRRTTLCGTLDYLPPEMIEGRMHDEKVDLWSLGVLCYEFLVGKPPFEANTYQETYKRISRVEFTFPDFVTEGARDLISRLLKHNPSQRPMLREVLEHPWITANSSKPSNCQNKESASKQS
The test can be described thus: Aurora-A enzyme assay (MBP-coated Flashplate, γ-33P-ATP). Type of test: biochemical. The following applies: IC50 range class; read-out: Inhibitor Activity vs Aurora-A. Here is the method: (§1) The ability of compounds to inhibit Aurora-A activity was measured using a simple microplate assay for Aurora-A activity, also suitable for high-throughput screening. In brief, γ-^33P-ATP and Aurora-A were incubated in a myelin basic protein (MBP)-coated Flashplate® to generate a scintillation signal. The plates were formatted to contain the inhibitor, controls, positive control (staurosporin) and blanks. After incubation at 37° C. for 1 hour and a subsequent wash procedure, the plates were read on a TopCount-NXT™.
The 384-well basic Flashplate® and the γ-^33P-ATP were obtained from PerkinElmer Life Sciences, Boston, Mass.
(§2) IC50 values were determined by non-linear regression analysis, after fitting the data point results to the equation for sigmoidal dose response with variable slope (% activity against log concentration of compound), using Graphpad Prism software.
Full experimental procedure for this assay can be found within the following reference: Sun, C Journal of Biomolecular Screening 9(5), 2004, 391.

The target of a further test is Aurora-B (Homo sapiens, UniProt Q96GD4). Put plainly: Aurora-B enzyme assay (identical protocol as Aurora-A). Type of test: biochemical. The following applies: IC50 range class; read-out: Inhibitor Activity vs Aurora-B. Here is the method: as §1, §2
Sequence of Aurora-B (Q96GD4 whole entry): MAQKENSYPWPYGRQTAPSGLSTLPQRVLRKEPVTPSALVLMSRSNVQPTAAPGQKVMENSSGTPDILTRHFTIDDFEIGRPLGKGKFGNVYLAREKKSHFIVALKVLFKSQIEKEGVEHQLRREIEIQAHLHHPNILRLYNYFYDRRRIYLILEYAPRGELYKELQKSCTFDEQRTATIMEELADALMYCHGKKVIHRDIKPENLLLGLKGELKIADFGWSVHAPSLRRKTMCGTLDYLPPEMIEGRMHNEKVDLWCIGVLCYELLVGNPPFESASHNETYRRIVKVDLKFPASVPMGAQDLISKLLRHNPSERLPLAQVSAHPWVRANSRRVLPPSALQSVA
The Aurora-B enzyme assay follows the identical protocol as Aurora-A.

Regarding `COc1cc2c(Oc3ccc(NC(=O)c4ccc(C(F)(F)F)cc4)cc3)ccnc2cc1OCC[C@H](N)C(=O)O` [Example 54, (S)-2-Amino-4-{6-methoxy-4-[4-(4-trifluoromethyl-benzoylamino)-phenoxy]-quinolin-7-yloxy}-butyric acid], the IC50 on Aurora-A and at Aurora-B was < 2000 nM each time.

In the case of `COc1cc2c(Oc3ccc(CC(=O)Nc4ccccc4)cc3)ccnc2cc1OCC[C@H](N)C(=O)O` [Example 81, (S)-2-Amino-4-[6-methoxy-4-(4-phenylcarbamoylmethyl-phenoxy)-quinolin-7-yloxy]-butyric acid], the IC50 at Aurora-A and at Aurora-B was 2000 to 5000 nM throughout.

Regarding `COc1cc2c(Oc3ccc(NC(=O)c4ccccc4)cc3)ccnc2cc1OCC[C@@H](N)C(=O)O` [Example 100, (R)-2-Amino-4-[4-(4-benzoylamino-phenoxy)-6-methoxy-quinolin-7-yloxy]-butyric acid], the figures for the IC50 on Aurora-A and on Aurora-B were 2000 to 5000 nM and < 2000 nM, respectively.

For the compound `COc1cc2c(Oc3ccc(NC(=O)Nc4ccccc4)cc3)ccnc2cc1OCC[C@H](N)C(=O)O` [Example 96, (S)-2-Amino-4-{6-methoxy-4-[4-(3-phenyl-ureido)-phenoxy]-quinolin-7-yloxy}-butyric acid], the IC50 at Aurora-A and on Aurora-B was < 2000 nM each time.

Regarding `COc1cc2c(Oc3ccc(NC(=O)Nc4ccc(C(F)(F)F)cc4)cc3F)ccnc2cc1OCC[C@H](N)C(=O)O` [Example 126, (S)-2-Amino-4-(4-{2-fluoro-4-[3-(4-trifluoromethyl-phenyl)-ureido]-phenoxy}-6-methoxy-quinolin-7-yloxy)-butyric acid], the IC50 at Aurora-A and at Aurora-B was < 2000 nM throughout.

As to `COc1cc2c(Oc3ccc(NC(=O)c4cccs4)cc3)ccnc2cc1OCC[C@H](N)C(=O)O` [Example 76, (S)-2-Amino-4-(6-methoxy-4-{4-[(thiophene-2-carbonyl)-amino]-phenoxy}-quinolin-7-yloxy)-butyric acid], the IC50 on Aurora-A and at Aurora-B was < 2000 nM each time.

In the case of `COc1cc2c(Oc3ccc(NC(=O)c4ccccc4)cc3F)ccnc2cc1OCC[C@H](N)C(=O)O` [Example 129, (S)-2-Amino-4-[4-(4-benzoylamino-2-fluoro-phenoxy)-6-methoxy-quinolin-7-yloxy]-butyric acid], the IC50 at Aurora-A and at Aurora-B was < 2000 nM throughout.

As to `COc1cc2c(Oc3ccc(NC(=O)C4CC4)cc3)ccnc2cc1OCC[C@H](N)C(=O)O` [Example 60, (S)-2-Amino-4-{4-[4-(cyclopropanecarbonyl-amino)-phenoxy]-6-methoxy-quinolin-7-yloxy}-butyric acid], the IC50 at Aurora-A and on Aurora-B was > 5000 nM each time.

For the compound `COc1cc2c(Oc3ccc(CC(=O)Nc4ccc(F)cc4)cc3)ccnc2cc1OCC[C@H](N)C(=O)O` [Example 87, (S)-2-Amino-4-(4-{4-[(4-fluoro-phenylcarbamoyl)-methyl]-phenoxy}-6-methoxy-quinolin-7-yloxy)-butyric acid], the values for the IC50 on Aurora-A and on Aurora-B were > 5000 nM and < 2000 nM, respectively.

Turning to `COc1cc2c(Oc3ccc(NC(=O)Nc4ccc(C(F)(F)F)cc4)cc3)ccnc2cc1OCC[C@@H](N)C(=O)O` [Example 105, (R)-2-Amino-4-(6-methoxy-4-{4-[3-(4-trifluoromethyl-phenyl)-ureido]-phenoxy}-quinolin-7-yloxy)-butyric acid], the IC50 on Aurora-A and at Aurora-B was < 2000 nM each time.

Regarding `COc1cc2c(Oc3ccc(NC(=O)Nc4ccccc4)cc3)ccnc2cc1OCC[C@@H](N)C(=O)O` [Example 102, (R)-2-Amino-4-{6-methoxy-4-[4-(3-phenyl-ureido)-phenoxy]-quinolin-7-yloxy}-butyric acid], the IC50 at Aurora-A and at Aurora-B was < 2000 nM throughout.

For `COc1cc2c(Oc3ccc(NC(=O)c4ccccc4)cc3)ccnc2cc1OCCC[C@@H](N)C(=O)O` [Example 116, (R)-2-Amino-5-[4-(4-benzoylamino-phenoxy)-6-methoxy-quinolin-7-yloxy]-pentanoic acid], the IC50 at Aurora-A and at Aurora-B was < 2000 nM in each case.

For the compound `COc1cc2c(Oc3ccc(CC(=O)Nc4cccc(F)c4)cc3)ccnc2cc1OCC[C@H](N)C(=O)O` [Example 85, (S)-2-Amino-4-(4-{4-[(3-fluoro-phenylcarbamoyl)-methyl]-phenoxy}-6-methoxy-quinolin-7-yloxy)-butyric acid], the IC50 is 2000 to 5000 nM on Aurora-A and < 2000 nM on Aurora-B.

Turning to `COc1cc2c(Oc3ccc(CC(=O)Nc4ccc(F)cc4F)cc3)ccnc2cc1OCC[C@H](N)C(=O)O` [Example 89, (S)-2-Amino-4-(4-{4-[(2,4-difluoro-phenylcarbamoyl)-methyl]-phenoxy}-6-methoxy-quinolin-7-yloxy)-butyric acid], the results for the IC50 on Aurora-A and at Aurora-B were > 5000 nM and < 2000 nM, respectively.

As for `COc1cc2c(Oc3ccc(NC(=O)Nc4ccccc4)cc3)ccnc2cc1OCCC[C@H](N)C(=O)O` [Example 112, (S)-2-Amino-5-{6-methoxy-4-[4-(3-phenyl-ureido)-phenoxy]-quinolin-7-yloxy}-pentanoic acid], the IC50 on Aurora-A and on Aurora-B was < 2000 nM in each case.

As to `COc1cc2c(Sc3ccc(NC(=O)Nc4ccc(C(F)(F)F)cc4)cc3)ccnc2cc1OCCC[C@@H](N)C(=O)O` [Example 122, (R)-2-Amino-5-(6-methoxy-4-{4-[3-(4-trifluoromethyl-phenyl)-ureido]-phenylsulfanyl}-quinolin-7-yloxy)-pentanoic acid], the IC50 on Aurora-A and on Aurora-B was < 2000 nM each time.

As for `COc1cc2c(Oc3ccc(NC(=O)Nc4ccccc4)cc3)ccnc2cc1OCCC[C@@H](N)C(=O)O` [Example 118, (R)-2-Amino-5-{6-methoxy-4-[4-(3-phenyl-ureido)-phenoxy]-quinolin-7-yloxy}-pentanoic acid], the IC50 on Aurora-A and at Aurora-B was < 2000 nM in each case.

Turning to `COc1cc2c(Oc3ccc(NC(=O)c4ccccc4)cc3)ncnc2cc1OCC[C@H](N)C(=O)O` [Example 30, (S)-2-Amino-4-[4-(4-benzoylamino-phenoxy)-6-methoxy-quinazolin-7-yloxy]-butyric acid], the IC50 on Aurora-A and at Aurora-B was 2000 to 5000 nM in each case.

Consider `COc1ccc(C(=O)Nc2ccc(Oc3ccnc4cc(OCC[C@H](N)C(=O)O)c(OC)cc34)cc2)cc1` [Example 58, (S)-2-Amino-4-{6-methoxy-4-[4-(4-methoxy-benzoylamino)-phenoxy]-quinolin-7-yloxy}-butyric acid], for which the IC50 was > 5000 nM at Aurora-A and < 2000 nM on Aurora-B.

`COc1cc2c(Nc3ccc(NC(=O)c4ccccc4)cc3)ccnc2cc1OCC[C@H](N)C(=O)O` [Example 16, (S)-2-Amino-4-[4-(4-benzoylamino-phenylamino)-6-methoxy-quinolin-7-yloxy]-butyric acid]: the IC50 on Aurora-A was > 5000 nM; at Aurora-B, 2000 to 5000 nM.

Turning to `COc1cc2c(Oc3ccc(NC(=O)c4ccccc4F)cc3)ccnc2cc1OCC[C@H](N)C(=O)O` [Example 62, (S)-2-Amino-4-{4-[4-(2-fluoro-benzoylamino)-phenoxy]-6-methoxy-quinolin-7-yloxy}-butyric acid], the figures for the IC50 at Aurora-A and at Aurora-B were 2000 to 5000 nM and < 2000 nM, respectively.
